Measurements as given in patent US11472811B2, “Pyrazolotriazolopyrimidine derivatives as A2A receptor antagonist” (BEIGENE, LTD., priority 2018, dated 2022).

Target: human A2A receptor (A2AR) (Homo sapiens (Human), UniProt P29274)
Assay: Luciferase reporter assay (HEK293-A2AR-luc2p/CRE/Hygro cells)
Format: cell-based
Conditions: 3 nM CGS21680, 5 h incubation
Summary of the method: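 Antagonism was scored as inhibition of CRE-luciferase signal driven by 3 nM CGS21680 (=100%) during a 5 h treatment with compound at 0.1–10000 nM. The line was HEK293 stably carrying human A2AR and luc2P/CRE, preincubated 18 h in 1% FBS containing 1 U/mL ADA. IC50 came from the dose-response curve.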

Sequence of human A2A receptor (A2AR) (P29274 whole entry): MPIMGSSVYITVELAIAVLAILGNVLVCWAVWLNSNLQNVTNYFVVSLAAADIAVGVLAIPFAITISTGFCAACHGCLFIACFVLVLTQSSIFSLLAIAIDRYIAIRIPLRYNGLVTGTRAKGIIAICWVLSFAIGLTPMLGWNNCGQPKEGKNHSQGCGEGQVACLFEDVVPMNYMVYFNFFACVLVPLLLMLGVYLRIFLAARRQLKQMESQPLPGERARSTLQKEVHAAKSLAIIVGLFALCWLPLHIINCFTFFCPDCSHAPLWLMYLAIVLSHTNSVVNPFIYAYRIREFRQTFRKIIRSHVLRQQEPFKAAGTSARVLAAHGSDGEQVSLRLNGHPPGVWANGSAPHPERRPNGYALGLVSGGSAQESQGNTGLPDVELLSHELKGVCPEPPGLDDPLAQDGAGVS

| IC50 [nM] | Structure (SMILES) |
| --- | --- |
| 0.5 | Cc1cccnc1CNC(=O)[C@@](C)(c1ccccc1)n1ncc2c1nc(N)n1nc(-c3ccco3)nc21 [Example 111B, (R)-2-(5-amino-2-(furan-2-yl)-7H-pyrazolo[4,3-e][1,2,4]triazolo[1,5-c]pyrimidin-7-yl)-N-((3-methylpyridin-2-yl)methyl)-2-phenylpropanamide] |
| 28 | C[C@@](C(=O)NCC1(O)COC1)(c1ccccc1)n1ncc2c1nc(N)n1nc(-c3ccco3)nc21 [Example 31A] |
| 39.3 | C[C@](C(=O)N[C@H]1CC[S@@+]([O-])CC1)(c1ccccc1)n1ncc2c1nc(N)n1nc(-c3ccco3)nc21 (single isomer, unassigned) [Example 146B-1] |
| 13.3 | CC(C(=O)N[C@H]1C[C@H](O)C1)(c1ccccc1)n1ncc2c1nc(N)n1nc(-c3ccco3)nc21 (relative stereo) [Example 102, 2-(5-amino-2-(furan-2-yl)-7H-pyrazolo[4,3-e][1,2,4]triazolo[1,5-c]pyrimidin-7-yl)-(trans)-N-(3-hydroxycyclobutyl)-2-phenylpropanamide] |
| 4.1 | COc1cccc(CNC(=O)C(C)(c2ccccc2)n2ncc3c2nc(N)n2nc(-c4ccco4)nc32)n1 (centres unmarked) [Example 112, 2-(5-amino-2-(furan-2-yl)-7H-pyrazolo[4,3-e][1,2,4]triazolo[1,5-c]pyrimidin-7-yl)-N-((6-methoxypyridin-2-yl)methyl)-2-phenylpropanamide] |
| 4.6 | COc1ccnc(CNC(=O)[C@@](C)(c2ccccc2)n2ncc3c2nc(N)n2nc(-c4ccco4)nc32)c1 [Example 114B, (R)-2-(5-amino-2-(furan-2-yl)-7H-pyrazolo[4,3-e][1,2,4]triazolo[1,5-c]pyrimidin-7-yl)-N-((4-methoxypyridin-2-yl)methyl)-2-phenylpropanamide] |
| 35.1 | CC(C(=O)Nc1cccnc1)(c1ccccc1)n1ncc2c1nc(N)n1nc(-c3ccco3)nc21 (centres unmarked) [Example 64, 2-(5-amino-2-(furan-2-yl)-7H-pyrazolo[4,3-e][1,2,4]triazolo[1,5-c]pyrimidin-7-yl)-2-phenyl-N-(pyridin-3-yl)propanamide] |
| 2.6 | Nc1nc2c(cnn2C(C(=O)NCc2ccc(F)cc2)c2ccccc2)c2nc(-c3ccco3)nn12 (centres unmarked) [Example 26, 2-(5-amino-2-(furan-2-yl)-7H-pyrazolo[4,3-e][1,2,4]triazolo[1,5-c]pyrimidin-7-yl)-N-(4-fluorobenzyl)-2-phenylacetamide] |
| 6.9 | Nc1nc2c(cnn2C(C(=O)N[C@@H]2CCC[C@@H]2O)c2ccccc2)c2nc(-c3ccco3)nn12 (stereo partly drawn) [Example 90, 2-(5-amino-2-(furan-2-yl)-7H-pyrazolo[4,3-e][1,2,4]triazolo[1,5-c]pyrimidin-7-yl)-N-((1R,2S)-2-hydroxycyclopentyl)-2-phenylacetamide] |
| 5.2 | CC(C(=O)N[C@H]1CC[C@@H](O)CC1)(c1ccccc1)n1ncc2c1nc(N)n1nc(-c3ccco3)nc21 (relative stereo) [Example 76, 2-(5-amino-2-(furan-2-yl)-7H-pyrazolo[4,3-e][1,2,4]triazolo[1,5-c]pyrimidin-7-yl)-(cis)-N-(4-hydroxycyclohexyl)-2-phenylpropanamide] |
| 36 | Nc1nc2c(cnn2C(C(=O)NC2CCOCC2)c2ccccc2)c2nc(-c3ccco3)nn12 (centres unmarked) [Example 11, 2-(5-amino-2-(furan-2-yl)-7H-pyrazolo[4,3-e][1,2,4]triazolo[1,5-c]pyrimidin-7-yl)-2-phenyl-N-(tetrahydro-2H-pyran-4-yl)acetamide] |
| 35.1 | CC(C(=O)NC1CCNCC1)(c1ccccc1)n1ncc2c1nc(N)n1nc(-c3ccco3)nc21 (centres unmarked) [Example 101, 2-(5-amino-2-(furan-2-yl)-7H-pyrazolo[4,3-e][1,2,4]triazolo[1,5-c]pyrimidin-7-yl)-2-phenyl-N-(piperidin-4-yl)propanamide] |
| 19.3 | C[C@](C(=O)NCCN1CCC(O)CC1)(c1ccccc1)n1ncc2c1nc(N)n1nc(-c3ccco3)nc21 [Example 148B, (R)-2-(5-amino-2-(furan-2-yl)-7H-pyrazolo[4,3-e][1,2,4]triazolo[1,5-c]pyrimidin-7-yl)-N-(2-(4-hydroxypiperidin-1-yl)ethyl)-2-phenylpropanamide] |
| 13 | COc1cccc(C(C)(C(=O)NCC2(O)COC2)n2ncc3c2nc(N)n2nc(-c4ccco4)nc32)c1 (centres unmarked) [Example 137, 2-(5-amino-2-(furan-2-yl)-7H-pyrazolo[4,3-e][1,2,4]triazolo[1,5-c]pyrimidin-7-yl)-N-((3-hydroxyoxetan-3-yl)methyl)-2-(3-methoxyphenyl)propanamide] |
| 4.5 | NC(=O)C(c1ccccc1)n1ncc2c1nc(N)n1nc(-c3ccco3)nc21 (centres unmarked) [Example 19, 2-(5-amino-2-(furan-2-yl)-7H-pyrazolo[4,3-e][1,2,4]triazolo[1,5-c]pyrimidin-7-yl)-2-phenylacetamide] |
| 43.9 | C[C@](C(=O)NC1CC[S+]([O-])CC1)(c1ccccc1)n1ncc2c1nc(N)n1nc(-c3ccco3)nc21 (single isomer, unassigned) [Example 146B-2] |
| 12.4 | CC(C(=O)NCC1CCCOC1)(c1ccccc1)n1ncc2c1nc(N)n1nc(-c3ccco3)nc21 (centres unmarked) [Example 61, 2-(5-amino-2-(furan-2-yl)-7H-pyrazolo[4,3-e][1,2,4]triazolo[1,5-c]pyrimidin-7-yl)-2-phenyl-N-((tetrahydro-2H-pyran-3-yl)methyl)propanamide] |
| 1.5 | Nc1nc2c(cnn2C(C(=O)NCc2ccccc2F)c2ccccc2)c2nc(-c3ccco3)nn12 (centres unmarked) [Example 7, 2-(5-amino-2-(furan-2-yl)-7H-pyrazolo[4,3-e][1,2,4]triazolo[1,5-c]pyrimidin-7-yl)-N-(2-fluorobenzyl)-2-phenylacetamide] |
| 9.3 | CC(C(=O)NCCC1CCOCC1)(c1ccccc1)n1ncc2c1nc(N)n1nc(-c3ccco3)nc21 (centres unmarked) [Example 73, 2-(5-amino-2-(furan-2-yl)-7H-pyrazolo[4,3-e][1,2,4]triazolo[1,5-c]pyrimidin-7-yl)-2-phenyl-N-(2-(tetrahydro-2H-pyran-4-yl)ethyl)propanamide] |
| 7.5 | C[C@]1(O)CC[C@H](NC(=O)C(c2ccccc2)n2ncc3c2nc(N)n2nc(-c4ccco4)nc32)CC1 (stereo partly drawn) [Example 96, 2-(5-amino-2-(furan-2-yl)-7H-pyrazolo[4,3-e][1,2,4]triazolo[1,5-c]pyrimidin-7-yl)-(cis)-N-(4-hydroxy-4-methylcyclohexyl)-2-phenylacetamide] |
| 16.1 | COc1ccccc1CNC(=O)C(CC(C)C)n1ncc2c1nc(N)n1nc(-c3ccco3)nc21 (centres unmarked) [Example 27, 2-(5-amino-2-(furan-2-yl)-7H-pyrazolo[4,3-e][1,2,4]triazolo[1,5-c]pyrimidin-7-yl)-N-(2-methoxybenzyl)-4-methylpentanamide] |
| 91.1 | CN(C)CCNC(=O)C(C)(c1ccccc1)n1ncc2c1nc(N)n1nc(-c3ccco3)nc21 (centres unmarked) [Example 62, 2-(5-amino-2-(furan-2-yl)-7H-pyrazolo[4,3-e][1,2,4]triazolo[1,5-c]pyrimidin-7-yl)-N-(2-(dimethylamino)ethyl)-2-phenylpropanamide] |

| Structure (SMILES) | IC50 [nM] |
| --- | --- |
| COc1ccccc1C(C)(C(=O)N[C@H]1CC[C@](C)(O)CC1)n1ncc2c1nc(N)n1nc(-c3ccco3)nc21 (stereo partly drawn) [Example 140, 2-(5-amino-2-(furan-2-yl)-7H-pyrazolo[4,3-e][1,2,4]triazolo[1,5-c]pyrimidin-7-yl)-N-((cis)-4-hydroxy-4-methylcyclohexyl)-2-(2-methoxyphenyl)propanamide] | 1.2 |
